Measured values from the supplement of paper PMC9763283.

Assays:
Experiment in all cases: area under growth-rate inhibition curve (AUC GRI) (dimensionless (GR-based AUC)); higher = less growth inhibition
Details in all cases: exposure time: 72 h; concentrations: 0.1, 1, 10 uM
[1] = test system: BT474-LTR
Summary of the method: (§1)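 Nuclear counts from Hoechst 33342- or DAPI-stained images were used to estimate the area under the growth-rate inhibition curve, with growth corrected by reference to untreated and DMSO-treated plates and starting plates. The six breast cancer cell line models, comprising two triple-negative lines and parental and drug-combination-resistant HER2+ lines, were treated with compound at 0.1, 1 or 10 µM for 72 h. Data came from 2 biological replicates, using Day 0 and Day 3 plates.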

[2] = test system: SKBR3-LTR
Summary of the method: as §1

[3] = test system: MDA-MB-231
Summary of the method: as §1

[4] = test system: BT474-P
Summary of the method: as §1

[5] = test system: MDA-MB-468
Summary of the method: as §1

[6] = test system: SKBR3-P
Summary of the method: as §1

| Compound | area under growth-rate inhibition curve [1] | area under growth-rate inhibition curve [2] | area under growth-rate inhibition curve [3] | area under growth-rate inhibition curve [4] | area under growth-rate inhibition curve [5] | area under growth-rate inhibition curve [6] |
| --- | --- | --- | --- | --- | --- | --- |
| CC(C)(C)NC[C@@H](O)COc1nsnc1N1CCOCC1.O=C(O)/C=C\C(=O)O [Timolol Maleate] | 1.11 | 1.06 | 1.03 | 1.04 | 1.04 | 1.02 |
| C[N+]1(C)[C@@H]2CC(OC(=O)C(O)(c3cccs3)c3cccs3)C[C@H]1C1OC12.O.[Br-] (stereo partly specified) [Tiotropium Bromide hydrate] | 1.12 | 1.04 | 1.05 | 1.05 | 1.03 | 1.02 |
| Cl.Clc1ccc2nsnc2c1NC1=NCCN1 [Tizanidine HCl] | 1.07 | 1.01 | 1.02 | 1.02 | 1.02 | 1 |
| [Cl-].[H+].c1ccc(CC2=NCCN2)cc1 [Tolazoline HCl] | 1.1 | 1.1 | 1.04 | 1.06 | 1.05 | 1.02 |
| Cc1ccc(O)c([C@H](CCN(C(C)C)C(C)C)c2ccccc2)c1.O=C(O)[C@H](O)[C@@H](O)C(=O)O [Tolterodine tartrate] | 1.12 | 1.06 | 1.03 | 1.04 | 1.04 | 0.972 |
| Cc1ccccc1C(=O)Nc1ccc(C(=O)N2CCCC(O)c3cc(Cl)ccc32)c(C)c1 (stereo unspecified) [Tolvaptan] | 1.03 | 1.03 | 1.01 | 1 | 1.02 | 1.02 |
| CC1(C)O[C@@H]2[C@@H](CO[C@@]3(COS(N)(=O)=O)OC(C)(C)O[C@@H]23)O1 [Topiramate] | 1.05 | 1.04 | 1.03 | 1.02 | 1.05 | 1.02 |
| CN(C)CCOc1ccc(/C(=C(/CCCl)c2ccccc2)c2ccccc2)cc1.O=C(O)CC(O)(CC(=O)O)C(=O)O [Toremifene Citrate] | 0.945 | 0.977 | 0.941 | 0.893 | 0.908 | 0.98 |
| CCC(COC(=O)c1cc(OC)c(OC)c(OC)c1)(c1ccccc1)N(C)C (stereo unspecified) [Trimebutine] | 0.977 | 1 | 0.972 | 0.981 | 0.984 | 1.03 |
| CCN(Cc1ccncc1)C(=O)C(CO)c1ccccc1 (stereo unspecified) [Tropicamide] | 1.09 | 1.07 | 1.02 | 1.05 | 1.01 | 1.01 |
| CN1[C@@H]2CC[C@H]1CC(OC(=O)C1C=Nc3ccccc31)C2.[Cl-].[H+] (stereo partly specified) [Tropisetron] | 1.09 | 1.06 | 1.03 | 1.02 | 1.02 | 0.976 |
| O=C(O[C@H]1C[C@H]2CC[C@@H](C1)[N+]21CCCC1)C(O)(c1ccccc1)c1ccccc1.[Cl-] [Trospium chloride] | 1.11 | 1.09 | 1.04 | 1.06 | 1.06 | 1 |
| COc1ccccc1N1CCN(CCCNc2cc(=O)n(C)c(=O)n2C)CC1.[Cl-].[H+] [Urapidil HCl] | 1.1 | 1.09 | 1.02 | 1.03 | 1.04 | 1.04 |
| COc1ccc(C(CN(C)C)C2(O)CCCCC2)cc1 (stereo unspecified) [Venlafaxine] | 0.974 | 1.01 | 0.983 | 0.982 | 0.994 | 0.972 |
| CS(=O)(=O)c1ccc(C(=O)Nc2ccc(Cl)c(-c3ccccn3)c2)c(Cl)c1 [Vismodegib (GDC-0449)] | 1.08 | 1.03 | 1.03 | 1.03 | 0.997 | 1.03 |
| CCOC(=O)NC1CCC2C(C1)CC1C(=O)OC(C)C1C2C=Cc1ccc(-c2cccc(F)c2)cn1 (stereo unspecified) [Vorapaxar] | 1.04 | 0.983 | 1.01 | 0.947 | 0.966 | 0.944 |
| c1ccc(NCc2ccc(CNc3ccccn3)cc2)nc1 [WZ811] | 1.08 | 1.04 | 1.02 | 1.02 | 1.04 | 1.01 |
| Cc1cccc(C)c1NC1=NCCCS1.[Cl-].[H+] [Xylazine HCl] | 1.12 | 1.07 | 1.02 | 1.04 | 1.04 | 1.01 |
| COc1nc(C)cnc1NS(=O)(=O)c1cccnc1-c1ccc(-c2nnco2)cc1 [Zibotentan (ZD4054)] | 1.07 | 1.04 | 1.03 | 1.02 | 1.01 | 0.958 |
| CC(c1cc2ccccc2s1)N(O)C(N)=O (stereo unspecified) [Zileuton] | 1.07 | 1.05 | 1.04 | 1.04 | 1.05 | 1.04 |
| O=C1Cc2cc(CCN3CCN(c4nsc5ccccc45)CC3)c(Cl)cc2N1.[Cl-].[H+] [Ziprasidone hydrochloride] | 1.06 | 1.05 | 1.03 | 0.993 | 1.03 | 1 |
